Data set [1] deals with DMBA-induced breast tumors. In words: DMBA-induced breast tumor pre-clinical study. In kind it is in vivo, rodents. The following applies: subcutaneous injection. How it is done: Pre-clinical studies were performed on rodents with breast tumors induced by 7,12-Dimethylbenz(a)anthracene (DMBA).
The nature of data set [2]: Thermodynamic solubility (solid shaken in solvent at 37° C., filtrate by LC/UV). The class given is physicochemical. How it is done:
Briefly, 300 ul of solvent (ethanol, 0.1 M HCl or distilled H2O) were added to 14-16 mg of the solid compound (5 parallel measurements per sample, per solvent, mean concentrations 93-107 mM). The mixtures were shaken at 37° C. for 24 and 72 hours. Concentrations of the filtrates were determined by liquid chromatography with UV detector (LC/UV) with 3-point calibration.
Crystal form was checked by X-ray powder diffraction (XRPD) after recovering the slurry at 24 and 72 hours. […] The exact cause of this observed phenomenon is not known.

Data set [3] is described as follows: Oral vs vaginal pharmacokinetics in beagles (25 mg). In kind it is in vivo. The protocol:
FIG. 1 illustrates a comparison of the Cmax (peak serum concentration) and area under the curve (AUC) following oral and vaginal administration of CDB-4124 or CDB-4453 at a 25 mg dose in beagles.
Beagles were administered 25 mg of CDB-4124 or CDB-4453 (the monodemethylated metabolite of CDB-4124) formulated as either a micronized powder or a vaginal suppository. […] Moreover, systemic exposure of the drug is much lower when administered locally (compare AUC for CDB-4124 and CDB-4453 when administered vaginally vs. orally).

In brackets after ≈: the same amount, converted by molar mass. Like-named read-outs stand apart in the source and are kept apart here.

What is called solubility (thermodynamic) is the concentration in solution at equilibrium with solid. With `COCC(=O)[C@@]1(OC(C)=O)CC[C@H]2[C@@H]3CCC4=CC(=O)CCC4=C3[C@@H](c3ccc(N(C)C)cc3)C[C@@]21C` [CDB-4124], in data set [1], the “Effect on quantity and size of DMBA-induced breast tumors” value is “effective in reducing the quantity and size of DMBA-induced breast tumors”. In addition, the solubility (thermodynamic) at 72 h worked out at 53.09 µM (≈ 26.8 µg/mL) in data set [2] (0.1M HCl, 24 h, read-out: Thermodynamic solubility, 0.1M HCl, Mean); 56.12 µM (≈ 28.4 µg/mL) in data set [2] (0.1M HCl, 72 h, read-out: Thermodynamic solubility, 0.1M HCl, Mean); 7.10 µM (≈ 3.59 µg/mL) in data set [2] (distilled water, 24 h, read-out: Thermodynamic solubility, distilled water, Mean); 3.20 µM (≈ 1.62 µg/mL) in data set [2] (distilled water, 72 h, read-out: Thermodynamic solubility, distilled water, Mean). Besides, the “Thermodynamic solubility, Ethanol, Mean” value came out at 36800 µM in data set [2] (24 h) and 34100 µM in data set [2] (72 h). Besides, the “Metabolism after peak plasma concentration” value in data set [3] (oral micronized powder) was “rapidly metabolized”. Moreover, in data set [3] (vaginal suppository), the Metabolism result is listed as “metabolized slowly”. Besides, the “Peak plasma concentrations (Cmax)” value in data set [3] (vaginal suppository) is listed as “relatively low”. For the same compound, the “Systemic exposure (AUC), local vs oral” value in data set [3] (vaginal vs oral) is given as “much lower”.

Source of the values: patent US20150203526A1, “NOVEL 19-NOR-STEROIDS AND THEIR USE FOR TREATING PROGESTERONE- DEPENDENT CONDITIONS” (REPROS THERAPEUTICS INC., priority 2010, published 2015).
